The text below walks through data of patent US20250195530A1, “POLQ INHIBITORS” (ASTRAZENECA AB, priority 2022, published 2025).

Read-outs that look alike come from different tables or passages of the source.

The test system of one test is DLD-1 cells. Briefly: Inhibition of proliferation, DLD-1 BRCA2 wt control (Cell Titre Glo 3D). The settings on record: Homo sapiens. In kind it is cell-based. In short, it runs like this:
(§1)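 Luminescent Cell Titre Glo 3D readout, taken on day 12 for homologous-recombination-deficient DLD-1 BRCA2−/− and day 7 for the wild-type control, after compound refresh on day 6. Compounds spanned 10 μM to 0.51 nM in three-fold steps; IC50 defined as 50% reduction of average maximum signal.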

Another test concerns DLD-1 BRCA2−/− cells. Briefly: Homologous recombination synthetic lethal inhibition of proliferation, DLD-1 BRCA2-/- (Cell Titre Glo 3D). Conditions: Homo sapiens. In kind it is cell-based. In short, it runs like this:
as §1

Setting [1] is: DLD-1, second proliferation column (c6), taken as DLD-1 BRCA2 wt, read-out: POLQ PD Prolif Lumin (converted).
Setting [2] is: DLD-1, first proliferation column (c5), taken as DLD-1 BRCA2-/-, read-out: POLQ PD Prolif Lumin (converted).
The mark [3] stands for this setting: DLD-1, 168 h, DLD-1 BRCA2 wt cells, 7 days, read-out: POLQ PD Prolif Lumin DLD1 mean pIC50 (converted).
[4] abbreviates: DLD-1, 288 h, DLD-1 BRCA2−/− cells, 12 days, read-out: POLQ PD Prolif Lumin BRCA2 −/− mean pIC50 (converted).
The mark [5] stands for this setting: DLD-1, second proliferation column (c6), DLD-1 BRCA2 wt control, read-out: POLQ PD Prolif Lumin (converted).
Setting [6] is: DLD-1, first proliferation column (c5), DLD-1 BRCA2-/-, read-out: POLQ PD Prolif Lumin (converted).
The mark [7] stands for this setting: DLD-1, DLD-1 BRCA2 wt control proliferation, column head only partly shown, read-out: POLQ PD Prolif Lumin (converted).
The mark [8] stands for this setting: DLD-1, DLD-1 BRCA2-/- proliferation, column head only partly shown, read-out: POLQ PD Prolif Lumin (converted).
Where [9] appears, read: DLD-1, 168 h, DLD-1 (BRCA2 wt control), 7 days, Cell Titre Glo 3D, read-out: POLQ PD Prolif Lumin DLD1 Mean pIC50 (converted).
Setting [10] is: DLD-1, 288 h, DLD-1 BRCA2−/−, 12 days, Cell Titre Glo 3D, read-out: POLQ PD Prolif Lumin BRCA2 −/− Mean pIC50 (converted).
Where [11] appears, read: DLD-1, second proliferation column, DLD-1 BRCA2 wt control, read-out: POLQ PD Prolif Lumin (converted).
Where [12] appears, read: DLD-1, first proliferation column, DLD-1 BRCA2-/-, read-out: POLQ PD Prolif Lumin (converted).

`CN(C)CCCOc1ccc(-c2nc3c(OC4(C)CC4)ncnc3n2Cc2cc(C(F)F)ccn2)c(Cl)c1` [Example T352, 3-(3-chloro-4-(9-((4-(difluoromethyl)pyridin-2-yl)methyl)-6-(1-methylcyclopropoxy)-9H-purin-8-yl)phenoxy)-N,N-dimethylpropan-1-amine]: the IC50 was over 10000 nM with DLD-1 cells (setting [1]) and 158 nM with DLD-1 BRCA2−/− cells (setting [2]).

As for `C[C@@H](CCOc1ccc(-c2nc3c(OC4(C)CC4)ncnc3n2Cc2ccccc2C#N)c(Cl)c1)C(=O)O` [Example T403, (S)-4-(3-chloro-4-(9-(2-cyanobenzyl)-6-(1-methylcyclopropoxy)-9H-purin-8-yl)phenoxy)-2-methylbutanoic acid], the IC50 is over 10000 nM in the test on DLD-1 cells (DLD-1, proliferation, luminescence, second Prolif column (c6), taken as DLD-1 BRCA2 wt control, read-out: POLQ PD Prolif Lumin (converted)) and 398 nM with DLD-1 BRCA2−/− cells (DLD-1, proliferation, luminescence, taken as DLD-1 BRCA2-/-, read-out: POLQ PD Prolif Lumin (converted)).

Consider `Cc1cc(OCCN2CCNCC2)ncc1-c1nc2c(OC3(C)CC3)ncnc2n1Cc1cccc(Cl)c1` [Example J6, 9-(3-chlorobenzyl)-8-(4-methyl-6-(2-(piperazin-1-yl)ethoxy)pyridin-3-yl)-6-(1-methylcyclopropoxy)-9H-purine], for which the results for the IC50 with DLD-1 cells (setting [3]) and in the test on DLD-1 BRCA2−/− cells (setting [4]) were over 10000 nM and 631 nM, respectively.

For the compound `Cc1cnc(Cn2c(-c3ccc(OC4CCNCC4)cc3Cl)nc3c(OC4(C)CC4)ncnc32)s1` [Example T138, 2-((8-(2-chloro-4-(piperidin-4-yloxy)phenyl)-6-(1-methylcyclopropoxy)-9H-purin-9-yl)methyl)-5-methylthiazole], the values for the IC50 with DLD-1 cells (setting [5]) and in the test with DLD-1 BRCA2−/− cells (setting [6]) were over 10000 nM and 501 nM, respectively.

As to `Cc1cnc(Cn2c(-c3ccc(OCCN4CCNCC4)cc3Cl)nc3c(OC4(C)CC4)ncnc32)cc1Cl` [Example T526, 8-(2-chloro-4-(2-(piperazin-1-yl)ethoxy)phenyl)-9-((4-chloro-5-methylpyridin-2-yl)methyl)-6-(1-methylcyclopropoxy)-9H-purine], the results for the IC50 in the test with DLD-1 cells (setting [5]) and in the test on DLD-1 BRCA2−/− cells (setting [6]) were over 10000 nM and 631 nM, respectively.

Take `CC(CCOc1ccc(-c2nc3c(OC(C)(C)C(F)(F)F)ncnc3n2Cc2cccc(Cl)c2)c(Cl)c1)C(=O)O` (racemic) [Example T274, 4-(3-chloro-4-(9-(3-chlorobenzyl)-6-((1,1,1-trifluoro-2-methylpropan-2-yl)oxy)-9H-purin-8-yl)phenoxy)-2-methylbutanoic acid]: the IC50 with DLD-1 cells (setting [7]) is over 10000 nM; in the test on DLD-1 BRCA2−/− cells (setting [8]) it was 316 nM.

Turning to `Cc1ccnc(Cn2c(-c3ccc(CC(=O)NC[C@H](C)O)cc3Cl)nc3c(OC4(C)CC4)ncnc32)c1` [Example T371, (S)-2-(3-chloro-4-(6-(1-methylcyclopropoxy)-9-((4-methylpyridin-2-yl)methyl)-9H-purin-8-yl)phenyl)-N-(2-hydroxypropyl)acetamide], the IC50 in the test on DLD-1 cells (setting [1]) is over 10000 nM; in the test on DLD-1 BRCA2−/− cells (setting [2]) it was 1000 nM.

Turning to `Cc1csc(Cn2c(-c3ccc(OCCN4CCNCC4)cc3Cl)nc3c(OC4(C)CC4)ncnc32)n1` [Example T248, 2-((8-(2-chloro-4-(2-(piperazin-1-yl)ethoxy)phenyl)-6-(1-methylcyclopropoxy)-9H-purin-9-yl)methyl)-4-methylthiazole], the IC50 in the test on DLD-1 cells (setting [7]) was over 10000 nM; in the test with DLD-1 BRCA2−/− cells (setting [8]), 2000 nM.

In the case of `Cc1ccnc(Cn2c(-c3ccc(C(=O)N4CC[C@@H](O)C4)cc3Cl)nc3c(OC4(C)CC4)ncnc32)c1` [Example T311, (R)-(3-chloro-4-(6-(1-methylcyclopropoxy)-9-((4-methylpyridin-2-yl)methyl)-9H-purin-8-yl)phenyl)(3-hydroxypyrrolidin-1-yl)methanone], the IC50 with DLD-1 cells (setting [1]) is over 10000 nM; with DLD-1 BRCA2−/− cells (setting [2]) it was 3980 nM.

Turning to `COc1ccc(Cl)cc1Cn1c(-c2ccc(OCC[C@@H](C)C(=O)O)cc2Cl)nc2c(OC3(C)CC3)ncnc21` [Example 47, (R)-4-(3-chloro-4-(9-(5-chloro-2-methoxybenzyl)-6-(1-methylcyclopropoxy)-9H-purin-8-yl)phenoxy)-2-methylbutanoic acid], the figures for the IC50 in the test with DLD-1 cells (setting [9]) and in the test with DLD-1 BRCA2−/− cells (setting [10]) were over 7940 nM and 25.1 nM, respectively.

On to `Cc1ccnc(Cn2c(-c3ccc(CC(=O)N(C)C)cc3Cl)nc3c(OC4(C)CC4)ncnc32)c1` [Example T210, 2-(3-chloro-4-(6-(1-methylcyclopropoxy)-9-((4-methylpyridin-2-yl)methyl)-9H-purin-8-yl)phenyl)-N,N-dimethylacetamide], for which the IC50 in the test with DLD-1 cells (setting [7]) is over 10000 nM; in the test with DLD-1 BRCA2−/− cells (setting [8]), 316 nM.

Consider `COc1ccc(Cl)cc1Cn1c(-c2cccc(OCCC(=O)O)c2Cl)nc2c(OC3(C)CC3)ncnc21` [Example 49, 3-(2-Chloro-3-(9-(5-chloro-2-methoxybenzyl)-6-(1-methylcyclopropoxy)-9H-purin-8-yl)phenoxy)propanoic acid], for which the results for the IC50 in the test on DLD-1 cells (setting [9]) and with DLD-1 BRCA2−/− cells (setting [10]) were over 10000 nM and 15.8 nM, respectively.

`CC1(Oc2ncnc3c2nc(-c2ccc(OCCN4CCC[C@H]4C(=O)O)cc2Cl)n3Cc2ccccc2)CC1` [Example H12, (2-(4-(9-benzyl-6-(1-methylcyclopropoxy)-9H-purin-8-yl)-3-chlorophenoxy)ethyl)-L-proline]: the IC50 is over 10000 nM in the test with DLD-1 cells (setting [3]) and 1000 nM in the test on DLD-1 BRCA2−/− cells (setting [4]).

Turning to `COc1ccc(Cl)cc1Cn1c(-c2cccc(CCCC(C)C(=O)O)c2Cl)nc2c(OC3(C)CC3)ncnc21` (racemic) [Example U55, 5-(2-chloro-3-(9-(5-chloro-2-methoxybenzyl)-6-(1-methylcyclopropoxy)-9H-purin-8-yl)phenyl)-2-methylpentanoic acid], the IC50 is over 10000 nM with DLD-1 cells (DLD-1, DLD1 BRCA2 wt, mean, read-out: POLQ PD Prolif Lumin DLD1 mean pIC50 (converted)) and 126 nM in the test with DLD-1 BRCA2−/− cells (DLD-1, DLD-1 BRCA2 −/−, mean, read-out: POLQ PD Prolif Lumin BRCA2 −/− mean pIC50 (converted)).

For the compound `CC1(Oc2ncnc3c2nc(-c2ccc(OCCC(=O)O)cc2Cl)n3Cc2ccccc2)CC1` [Example H11, 3-(4-(9-benzyl-6-(1-methylcyclopropoxy)-9H-purin-8-yl)-3-chlorophenoxy)propanoic acid], the IC50 was over 10000 nM in the test with DLD-1 cells (setting [3]) and 1000 nM in the test on DLD-1 BRCA2−/− cells (setting [4]).

Consider `CC1(Oc2ncnc3c2nc(-c2ccc(O[C@H]4CNC[C@H]4F)cc2Cl)n3Cc2ccccc2)CC1` [Example D31, 9-benzyl-8-(2-chloro-4-(((3S,4R)-4-fluoropyrrolidin-3-yl)oxy)phenyl)-6-(1-methylcyclopropoxy)-9H-purine], for which the IC50 was 7940 nM with DLD-1 cells (setting [3]) and 200 nM with DLD-1 BRCA2−/− cells (setting [4]).

With `CC1(Oc2ncnc3c2nc(-c2ccc(OCCN4CC5CCC(C4)N5)cc2Cl)n3Cc2ccccc2)CC1` [Example R4, 8-(4-(2-(3,8-diazabicyclo[3.2.1]octan-3-yl)ethoxy)-2-chlorophenyl)-9-benzyl-6-(1-methylcyclopropoxy)-9H-purine], the results for the IC50 in the test with DLD-1 cells (setting [3]) and in the test with DLD-1 BRCA2−/− cells (setting [4]) were 3160 nM and 126 nM, respectively.

`Cc1ccnc(Cn2c(-c3ccc(OC[C@@H](C)O)cc3Cl)nc3c(OC4(C)CC4)ncnc32)c1` [Example 37, (R)-1-(3-Chloro-4-(6-(1-methylcyclopropoxy)-9-((4-methylpyridin-2-yl)methyl)-9H-purin-8-yl)phenoxy)propan-2-ol]: the IC50 is over 10000 nM with DLD-1 cells (setting [9]) and 126 nM in the test with DLD-1 BRCA2−/− cells (setting [10]).

Consider `CC1(Oc2ncnc3c2nc(-c2ccc(OCCN4CC5(CCN5)C4)cc2Cl)n3Cc2ccccc2)CC1` [Example H18, 8-(4-(2-(1,6-diazaspiro[3.3]heptan-6-yl)ethoxy)-2-chlorophenyl)-9-benzyl-6-(1-methylcyclopropoxy)-9H-purine], for which the IC50 in the test with DLD-1 cells (setting [3]) is 3160 nM; in the test with DLD-1 BRCA2−/− cells (setting [4]), 316 nM.

In the case of `Cc1cc(OCCN2CCN(C)CC2)ccc1-c1nc2c(OC(C)C)ncnc2n1Cc1ccccc1` [Example 1, 9-Benzyl-6-isopropoxy-8-(2-methyl-4-(2-(4-methylpiperazin-1-yl)ethoxy)phenyl)-9H-purine], the IC50 is 6310 nM in the test with DLD-1 cells (setting [3]) and 631 nM in the test on DLD-1 BRCA2−/− cells (setting [4]).

For the compound `Cc1cc(C)nc(Cn2c(-c3ccc(OCCN4CCNCC4)cc3Cl)nc3c(OC4(C)CC4)ncnc32)c1` [Example T595, 8-(2-chloro-4-(2-(piperazin-1-yl)ethoxy)phenyl)-9-((4,6-dimethylpyridin-2-yl)methyl)-6-(1-methylcyclopropoxy)-9H-purine], the IC50 in the test on DLD-1 cells (setting [11]) is over 10000 nM; in the test with DLD-1 BRCA2−/− cells (setting [12]), 1260 nM.

Consider `Cc1ccnc(Cn2c(-c3ccc(OCCN4CCNC[C@@H]4C)cc3Cl)nc3c(OC4(C)CC4)ncnc32)c1` [Example T594, (S)-8-(2-chloro-4-(2-(2-methylpiperazin-1-yl)ethoxy)phenyl)-6-(1-methylcyclopropoxy)-9-((4-methylpyridin-2-yl)methyl)-9H-purine], for which the IC50 was 2510 nM with DLD-1 cells (setting [11]) and 501 nM in the test on DLD-1 BRCA2−/− cells (setting [12]).
